Values quoted from earlier work in patent US20030064909A1, “Laundry detergent and/or fabric care compositions comprising a transferase” (The Procter & Gamble Company, priority 1998, published 2003).

solubility in water | SMILES
about 70% | [H]/N=C(\N/C(=N/[H])NCCCCCCNC(=N)NC(=N)Nc1ccc(Cl)cc1)Nc1ccc(Cl)cc1 [chlorhexidine digluconate, 1,1′-hexamethylene bis(5-(p-chlorophenyl)biguanide), reference compound]
about 0.8% | CC(C)(O)C(Cl)(Cl)Cl [chlorobutanol, 1,1,1-Trichloro-2-methylpropan-2-ol, reference compound]
about 1.8% | [H]/N=C(\N/C(=N/[H])NCCCCCCNC(=N)NC(=N)Nc1ccc(Cl)cc1)Nc1ccc(Cl)cc1 [chlorhexidine diacetate, 1,1′-hexamethylene bis(5-(p-chlorophenyl)biguanide), reference compound]
about 4% | OCc1ccccc1 [benzyl alcohol]

The next lines start with the molecule.

SMILES | solubility in water
CC1(C)C(=O)N(CO)C(=O)N1CO [DMDM hydantoin, 1,3-bis(hydroxymethyl)-5,5-dimethyl-2,4-imidazolidinedione] | more than 50%
O=[N+]([O-])C1(Br)COCOC1 [Bronidox L, 5-bromo-5-nitro-1,3-dioxane] | about 0.46%
OCCOc1ccccc1 [2-phenoxyethanol] | about 2.67%
O=[N+]([O-])C(Br)(CO)CO [Bronopol, 2-bromo-2-nitropropane-1,3-diol] | about 25%
[Na+].[O-][n+]1ccccc1[S-] [sodium pyrithione] | about 50%
OCCc1ccccc1 [2-phenylethanol] | about 2%
ClC=CC[N+]12CN3CN(CN(C3)C1)C2.[Cl-] [Dowicil 200, 1-(3-Chlorallyl) -3,5,7-triaza-1-azoniaadamantane chloride] | freely soluble in water
